Legend:
[1] = target: T1, recombinant human (rh) KLK5 protease (Homo sapiens, UniProt Q9Y337); assay: Enzymatic activity of Kallikrein 5 (KLK5), fluorogenic peptide substrate Boc-V-P-R-AMC; type: biochemical; details: for KLK5 activity compared to that of salicylic acid: relative to salicylic acid; for stimulation of KLK5 enzymatic activity: rhKLK5 pre-incubated with test compound 60 seconds, rate of substrate cleavage
T1 construct: purchased R&D Systems 1108-SE
T1 sequence (Q9Y337 23-293): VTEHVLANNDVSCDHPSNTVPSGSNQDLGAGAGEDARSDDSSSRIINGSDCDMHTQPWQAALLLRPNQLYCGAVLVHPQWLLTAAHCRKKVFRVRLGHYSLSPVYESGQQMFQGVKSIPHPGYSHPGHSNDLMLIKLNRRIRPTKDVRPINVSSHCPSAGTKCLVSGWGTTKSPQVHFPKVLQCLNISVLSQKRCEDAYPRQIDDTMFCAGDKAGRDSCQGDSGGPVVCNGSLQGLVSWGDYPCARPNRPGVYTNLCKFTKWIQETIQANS
From the text: In the stratum corneum, skin's outermost layer, cell-to-cell cohesion depends primarily on proteins known as the corneodesmosomes. During skin remodeling and renewal dead cells are shed from the skin surface by the action of native proteases that break down the corneodesmosomes. […] Hypothetically, up-regulation of the activities of these proteases using different active candidates could be utilized to increase the rate of shedding of dead skin, thus providing a natural means for skin exfoliation. To this end, the enzymatic activity of a member of the KLK family, recombinant human (rh) KLK5, was monitored following pre-incubation with actives and measuring the rate of peptide bond cleavage of a synthetic substrate.
Enzymatic activity of KLK5 was measured by incubating recombinant human (rh) KLK5 protease (R&D Systems, Cat No. 1108-SE) with a specific fluorogenic peptide substrate Boc-V-P-R-AMC (R& D Systems, Cat No. ES011). The substrate is conjugated to a quenched fluorescent group. Upon cleavage of the adjacent peptide bond, the fluorescent signal is released, resulting in a measurable emission at 535 nm when excited at 340 nm wavelength. Increase in fluorescence reading indicates an increase in rhKLK5 activity. The test compounds were reacted with recombinant rhKLK5 protease for 60 seconds followed by addition of Boc-V-P-R-AMC Fluorogenic Peptide Substrate. After 60 seconds of incubation, fluorescence was measured at 340 nm (Excitation wavelength) and […] (Emission wavelength) every 1 minute for 7 minutes. Rate (kinetics) of enzyme activity was calculated as follows: Rate of enzyme activity=Change of fluorescent reading (after background correction)/Change of reaction time (min). Percent change of activity due to a test compound was calculated by comparing rate of enzyme activity in the presence of the test compound to that of a control without the test compound and statistical significance was calculated using a t-test. Additionally, the rate of activity of the compounds was compared to that of salicylic acid.

[2] = Skin PAMPA parallel artificial membrane penetration assay; type: in vitro ADME; details: donor pH 4.25, acceptor pH 7.4, 50 nM, two hours incubation; relative to salicylic acid
Protocol: Several salicylic acid derivatives were assessed for their ability to penetrate skin. Each of the compounds was formulated in an aqueous buffer, with a final pH of 4.25 at a concentration of 50 nM. The skin permeability of the compounds was measured using a high throughput transdermal permeability model, the parallel artificial membrane penetration assay (Skin PAMPA™), which uses a skin mimetic artificial membrane that simulates the barrier properties of the strateum corneum.
Briefly, the Skin PAMPA™ assay is a sandwich assay that utilizes two 96-well plate assemblies, one of which acts as the acceptor chambers (comprising a buffer), and one of which acts as the donor chambers (comprising a buffer and the compound to be tested). […] After an incubation period, the donor and acceptor chambers are analyzed for the amount of compound present.
In the current experiments, the acceptor chamber included an acceptor solution made from Prisma™ HT buffer solution (Pion, Inc.) that was adjusted to a pH of 7.4±0.05 using 1.0 M NaOH, and the donor chamber included a donor solution made from Prisma™ HT buffer solution (Pion, Inc.) that was adjusted to a pH of 4.25±0.05 using 1.0 M NaOH. […] Effective permeability was then calculated by the same method as Sinko et al., Eur. J. Pharm. […]

Row | stimulation of KLK5 enzymatic activity [1] | skin permeability (effective permeability) [2] | SMILES | KLK5 activity compared to that of salicylic acid [1]
1 | potent stimulators of KLK5 | highest permeability | CC(C)c1cc(O)c(C(=O)O)c(C(C)C)c1 [Compound A, 4,6-diisopropyl salicylic acid] | superior KLK5 activity as compared to salicylic acid
2 | potent stimulators of KLK5 | highest permeability | CC(C)(C)c1cc(O)c(C(=O)O)c(C(C)(C)C)c1 [Compound B, 4,6-di-tert-butyl salicylic acid] | superior KLK5 activity as compared to salicylic acid

Reference: patent US20150152035A1, “COSMETIC USE OF SALICYLIC ACID DERIVATIVES” (Avon Products, Inc,, priority 2013, published 2015)
